Experimental data taken from USRE46942E1, “4-piperidinyl compounds for use as tankyrase inhibitors” (NOVARTIS AG, priority 2011, dated 2018).

Columns and labels:
[1] = system: Axin2 protein in colorectal cell line SW480; assay: Cellular ELISA assay for stabilizing the Axin2 protein; format: cell-based; details: Homo sapiens; SW480 cells, 24 hrs; read-out: Axin AC50
Description: Compound activity in stabilizing the Axin2 protein was measured by Sandwich Enzyme-Linked Immuosorbent (ELISA) assay in the colorectal cell line SW480. 30,000 SW480 cells were seeded per well in 96-well plate and incubated overnight prior to compound treatment. […] Cells were then washed with 100 μL of cold Phosphate Buffer Saline (PBS), and lysed in 125 μl of cold 1× lysis buffer (Cell Signaling Technology, 9803) supplemented with Protease inhibitor (Roche, 11836170) and Phosphatase inhibitors (Sigma, P2850, P5726). […] After blocking, plates were then washed three times with 300 μl/well of wash solution. 100 μL of prepared SW480 cell lysate was then added to each well and incubated at room temperature for 2 hours while shaking gently. After washing, 100 μL of Biotinylated anti-Axin2 antibody (CST, 2151) was added to each well and incubated room temperature for 2 hours. 100 μL of Streptavidin-HRP (R&D systems, DY998) diluted 1:200 in 1% BSA/PBS was then added in each well and incubate for 30 mins at R/T in the dark. Signal was detected by Chemiluminescence (Pierce SuperSignal ELISA Femto #3704), and measured on PerkinElmer Wallac 1420 plate reader.

[2] = system: Non-small lung cancer ABC-1 cells; assay: Cellular proliferation assay (CellTiter-Glo); format: cell-based; details: Homo sapiens, 72 h, 3 days of compound treatment
Description: Non-small lung cancer ABC-1 cells were plated at 5000 cells per well in 96-well plates and treated with 8 serial compound dilutions starting from 10 μM as the highest concentration. Viable cells were measured after 3 days of compound treatment using the CellTiter-Glo assay (Promega, G7570). Assay was performed following the manufacture protocol.

[3] = system: Wnt ligand-induced signaling in HEK293 cells; assay: Wnt-responsive Super-TOp-Flash (STF) luciferase reporter gene assay; format: cell-based; details: Homo sapiens, Wnt3A condition medium
Description: Compound activity in inhibiting Wnt ligand-induced signaling was measured using a Wnt-responsive Super-TOp-Flash (STF) luciferase reporter gene assay in HEK293 cells. On day 1 of the assay, cells were plated at a density of 8000 cells per well of 384-well plate in 25 μl medium containing 5% fetal bovine serum (FBS). […] On the third day, the luciferase activity was measured by the Bright-Glo™ Luciferase Assay System following manufacture's protocol (Promega, E2620).

[4] = system: Herpes Simplex Virus (HSV); details: cited from earlier work

SMILES | IC50 [2] | AC50 [1] | IC50 [3] | viral growth [4]
COc1ccc2c(c1)CC1(CCN([C@H]3CCN(Cc4nc5c(c(=O)[nH]4)COCC5)C3=O)CC1)C2=O [Example 16, (S)-2-((3-(5-methoxy-1-oxo-1,3-dihydrospiro[indene-2,4′-piperidine]-1′-yl)-2-oxopyrrolidin-1-yl)methyl)-7,8-dihydro-3H-pyrano[4,3-d]pyrimidin-4(5H)-one] | 82 nM | 7 ± 1 nM | 1.7 ± 0.2 nM | –
COc1ccc2c(c1)CC1(CCN([C@@H]3CCN(Cc4nc5c(c(=O)[nH]4)COCC5)C3=O)CC1)C2=O [Example 17, (R)-2-((3-(5-methoxy-1-oxo-1,3-dihydrospiro[indene-2,4′-piperidine]-1′-yl)-2-oxopyrrolidin-1-yl)methyl)-7,8-dihydro-3H-pyrano[4,3-d]pyrimidin-4(5H)-one] | 2000 ± 900 nM | 1790 ± 140 nM | 396 ± 10 nM | –
Oc1nc(-c2ccc(C(F)(F)F)cc2)nc2c1CSCC2 [XAV939] | – | – | – | decreased viral growth

Continued, in another order:

IC50 [2] | SMILES | AC50 [1] | IC50 [3] | viral growth [4]
49 nM | COc1ccc(C(=O)C2CCN([C@@H]3CCN(CC(=O)Nc4nnc5n4CCS5)C3=O)CC2)cc1 (single isomer, unassigned) [Example 34] | 78 ± 6 nM | – | –
1610 nM | COc1ccc(C(=O)C2CCN([C@H]3CCN(CC(=O)Nc4nnc5n4CCS5)C3=O)CC2)cc1 [Example 33, N-(5,6-dihydrothiazolo[2,3-c][1,2,4]triazol-3-yl)-2-((S)-3-(4-(4-methoxybenzoyl)piperidin-1-yl)-2-oxopyrrolidin-1-yl)acetamide] | 1340 ± 110 nM | – | –
